Results on two compounds are retold here after paper PMC8620390, “New Multi-Targeted Antiproliferative Agents: Design and Synthesis of IC261-Based Oxindoles as Potential Tubulin, CK1 and EGFR Inhibitors” (Pharmaceuticals, 2021).

For experiment [1], the system named is COLO-205. Put plainly: Two-dose antiproliferative screening, SRB assay, COLO-205. The following applies: triplicates; for Growth Inhibition (%) COLO-205 1 μM Average: 72 h; for inhibition at 1 µM / inhibition at 10 µM: Homo sapiens, COLO 205, 72 h; for inhibition at 1 µM: read-out: Growth Inhibition (%) COLO-205 1 μM Average; for inhibition at 10 µM: read-out: Growth Inhibition (%) COLO-205 10 μM Average. In kind it is cell-based, human. The protocol:
(§1) MCF-7(breast adenocarcinoma), PC-3 (prostate cancer) and COLO-205 (colorectal cancer) were obtained from Nawah Scientific inc., (Mokatam, Cairo, Egypt). Cells were maintained in Dulbecco’s Modified Eagle’s media (DMEM media) supplemented with […] of streptomycin, 100 units/mL of penicillin and 10% of heat-inactivated fetal bovine serum in humidified, 5% (v/v) CO2 atmosphere at 37 °C.
(§2) Cell viability was assessed by the sulforhodamine B (SRB) assay. Aliquots of cell suspension (5 × 10^3 cells, 100 μL) were transferred into 96 well plates and incubated in complete media for 24 h. Cells were treated with another aliquot media (100 μL) containing compounds 3a–f, 4a–f, 6a–f, 7a–f, 9a–b at concentrations of 1 and 10 μM). After 72 h of drug exposure, cells were fixed by replacing media with trichloroacetic acid (TCA, 10%, 150 μL) and incubated at 4 °C for 1 h. The TCA solution was removed, and the cells were washed five times with distilled water. Aliquots of SRB solution (0.4%w/v, 70 μL) were added and incubated in a dark place at room temperature for 10 min. Plates were washed three times with 1% acetic acid and allowed to air dry overnight. Then, a solution of TRIS base and TRIS HCl (TRIS buffer, 10 mM, 150 μL) was added to dissolve protein bound SRB stain. The absorbance was measured at 540 nm using BMGLABTECH®–FLUOstar omega micro-plate reader (Ortenberg, Germany).

The next experiment relates to PC-3. The experiment in a line: Two-dose antiproliferative screening, SRB assay, PC-3. It counts as cell-based. The following applies: triplicates; for Growth Inhibition (%) PC-3 1 μM Average: 72 h; for inhibition at 1 µM / inhibition at 10 µM: Homo sapiens, PC-3, 72 h; for inhibition at 1 µM: read-out: Growth Inhibition (%) PC-3 1 μM Average; for inhibition at 10 µM: read-out: Growth Inhibition (%) PC-3 10 μM Average. How it is done: as §1, §2

In a further experiment the test system is A549 cell line. The experiment in a line: MTT assay for A549 cell line. It counts as cell-based. How it is done:
MTT assay for A549 cell line. Cell Line cells were obtained from American Type Culture Collection. Cells were cultured using DMEM (Invitrogen/Life Technologies, Carlsbad, CA, USA) supplemented with 10% FBS (Hyclone, Logan, UT, USA), 10 μg/mL of insulin (Sigma, St. Louis, MI, USA), and 1% penicillin-streptomycin. All the other chemicals and reagents were from Sigma (St. Louis, MI, USA) or Invitrogen (Carlsbad, CA, USA). Cells were plated (cells density 1.2–1.8 × 10,000 cells/well) in a volume of 100 µL complete growth medium + 100 μL of the tested compound per well in a 96-well plate for 24 h before the application of MTT assay protocol as reported, Supplementary Materials.
Cell Line cells were obtained from American Type Culture Collection , cells were cultured using DMEM (Invitrogen/Life Technologies) supplemented with 10% FBS (Hyclone,), 10 ug/ml of insulin (Sigma), and 1% penicillin-streptomycin. All of the other chemicals and reagents were from Sigma, or Invitrogen.
Plate cells (cells density 1.2 – 1.8 × 10,000 cells/well) in a volume of 100µl complete growth medium + 100 ul of the tested compound per well in a 96-well plate for 24 hours before the MTT assay .
1. Remove culture medium to a centrifuge tube.
2. Briefly rinse the cell layer with 0.25% (w/v) Trypsin 0.53 mM EDTA solution to remove all traces of serum which contains Trypsin inhibitor.
3. Add 2.0 to 3.0 ml of Trypsin EDTA solution to flask and observe cells under an inverted microscope until cell layer is dispersed (usually within 5 to 15 minutes). […]
waiting for the cells to detach. Cells that are difficult to detach may be placed at 37°C […]
4. Add 6.0 to 8.0 mL of complete growth medium and aspirate cells by gently
5. […]
6. Spectrophotometrically measure absorbance at a wavelength of 570 nm. Measure the background absorbance of multiwell plates at 690 nm and subtract from the […] measurement. Tests performed in multiwell plates can be read using the appropriate type of plate reader or the contents of individual wells may be transferred to appropriate size cuvets for spectrophotometric measurement.

The subject of experiment [2] is COLO-205. The experiment in a line: IC50 against COLO-205, SRB assay. In kind it is cell-based. Conditions: Homo sapiens, 0.001–100 μM. The protocol:
as §2
The same procedures used to screen two-dose anticancer activities were applied in determining IC50 values against COLO-205 using SRB assay. Cells were maintained at Roswell Park Memorial Institute media (RPMI media). The test was performed using 0.001–100 μM of compounds 4a (IC261), 4b, 4d, 4e, 6e and 6f. IC50 values were calculated using the equation for Boltzman sigmoidal concentration–response curve using the nonlinear regression fitting models by GraphPad, Prism version 5 (GraphPad Software Inc., La Jolla, CA, USA).

In the case of `COc1cc(OC)c(/C=C2/C(=O)Nc3ccccc32)c(OC)c1` [Compound 4a, (E)-3-(2,4,6-trimethoxybenzylidene)indolin-2-one, reference compound], in the experiment with COLO-205 [1], the “Growth Inhibition (%) COLO-205 1 μM Average” value amounted to 63.60%, the inhibition at 1 µM turned out to be 64% and the inhibition at 10 µM was 77.5%. In addition, in the experiment with PC-3, the “Growth Inhibition (%) PC-3 1 μM Average” value came out at 59.19%, the inhibition at 1 µM was determined as 60% and the inhibition at 10 µM is 67.9%. In addition, the IC50 in the experiment with A549 cell line (Homo sapiens, A549) worked out at 28 µM. Inhibition in the experiment on A549 cell line (listed as 4a (IC261)) was half-maximal at 28.4 µM (IC50). This compound gave an IC50 with COLO-205 [2] of 0.2 µM.

For `COc1cc(OC)c(/C=C2/C(=O)Nc3cc(Cl)ccc32)c(OC)c1` [Compound 4b, (E)-6-chloro-3-(2,4,6-trimethoxybenzylidene)indolin-2-one], in the experiment on COLO-205 [1], the “Growth Inhibition (%) COLO-205 1 μM Average” value was 73.32%, the inhibition at 1 µM is 74% and the inhibition at 10 µM was 82.5%. In the experiment with PC-3, the “Growth Inhibition (%) PC-3 1 μM Average” value is on record as 64.05%, the inhibition at 1 µM came to 65% and the inhibition at 10 µM is 71.7%. In the experiment with A549 cell line (Homo sapiens, A549), the IC50 is 9.5 µM. Further, inhibition in the experiment on COLO-205 [2] was half-maximal at 0.2 µM (IC50).
